Here are results for one compound from patent publication US20070098636A1, “Method of identifying responders to treatment with insulin sensitizers” (priority 2003, published 2007).

Each structure is given as a SMILES string.

The subject of one assay is db/db mice. Description: Adiponectin complex distribution in serum of treated db/db mice (velocity sedimentation, quantitative Western blot). The format is in vivo, mouse. The following applies: male db/db mice, 10 mg/kg-day by gavage, following 11 days of treatment. The protocol:
(§1) Velocity sedimentation/gel filtration chromatography for separation of adiponectin complexes—5-20% sucrose gradients in 10 mM HEPES pH 8, 125 mM NaCl were poured stepwise (5%, 10%, 15%, 20%) in 2-ml thin-walled ultracentrifuge tubes (Becton Dickinson) and allowed to equilibrate overnight at 4° C. Following layering of the sample on top (diluted 1:10 with 10 mM HEPES pH 8, 125 mM NaCl in the case of serum), the gradients were spun at 55,000 RPM for four hours at 4° C. in a TLS55 rotor in a Beckman TL-100 tabletop ultracentrifuge. 150 μL gradient fractions were sequentially retrieved from the top of the gradient and analyzed by quantitative Western blot analysis.
(§2) Immunoblotting—Separation of proteins by SDS-PAGE, fluorography, and immunoblotting were performed as described previously (20). Primary and secondary antibodies were diluted in TBS with 0.05% Tween-20 and 1% BSA. Horseradish peroxidase conjugated secondary antibodies were detected with enhanced chemiluminescence according to the manufacturer's instructions (Pierce). For quantitative Western blotting, proteins were transferred to BA83 nitrocellulose (Schleicher & Schuell) after SDS-PAGE. […] Blots were analyzed with a Phosphoimager (Molecular Dynamics) and fractions 4-6 and 9-11 from velocity sedimentation (LMW and […] adiponectin, respectively) were quantitated with Imagequant Software. […]

For another assay, the system named is non-diabetic human males. Description: Human Clinical Study A: plasma adiponectin and adiponectin complexes pre- and post-treatment. It counts as in vivo. As to conditions: 4 mg bid for 14 days. The method, then:
as §1, §2

Take `CN(CCOc1ccc(CC2SC(=O)NC2=O)cc1)c1ccccn1` (stereo not drawn) [rosiglitazone]: the “percentage of adiponectin found in the high molecular weight (HMW) form” value in the assay with db/db mice is listed as “approximately 45 % of total circulating adiponectin”. In the assay on non-diabetic human males, the “total adiponectin relative to placebo” value is given as “about 2 fold”. In addition, the “HMW/total adiponectin ratio, post-treatment value” with non-diabetic human males (pre-treatment value 20-25%) is reported as 45-50%.
